Among the data in patent US11992468B2, “Abuse-deterrent dosage forms containing esketamine” (Clexio Biosciences Ltd., priority 2019, dated 2024) are recovery values, retold here.

Counter-ions that a name gives are not always drawn.

A short description of this data set: Simulated in vitro nasal diffusion/release (vertical diffusion cell). As to conditions: pH 6.4.

As to `CN[C@]1(c2ccccc2Cl)CCCCC1=O` [Esketamine HCl powder, esketamine hydrochloride], the recovery at 10 min was 45.1%, the recovery at 30 min is 75.9% and the recovery at 60 min is 79.2%.
